Consider 20 molecules from patent US11384078B2, “5,6-fused-bicyclic compounds and compositions for the treatment of parasitic diseases” (NOVARTIS AG, priority 2017, dated 2022).

Common to all, as to assay type: cell-based
In assay [1] the test system is Leishmania donovani axenic amastigote. Kind of assay: In vitro assay for growth inhibition of Leishmania donovani axenic amastigote (Cell TiterGlo luminescence). The settings on record: Leishmania donovani, L. donovani axenic amastigotes in vitro; read-out: L. donovani amastigotes EC50. The protocol:
Abbreviations as used herein below have the corresponding meaning: • CPRG Chlorophenol Red-P-D-galactopyranoside • ATP adenosine triphosphate • BSA bovine serum albumin • DMSO dimethyl sulfoxide • FBS fetal bovine serum • PBS phosphate buffered saline • RPMI 1640 Rosweli Park Memorial Institute (RPMI) 1640 medium In Vitro Assay for Growth Inhibition of Leishmania donovani Axenic Amastiqote
Leishmania donovani axenic amastigote parasites are grown at 37° C., 5% CO2 in media made of RPMI 1640, 4 mM L-glutamine, 20% heat inactivated FBS, 100 units/ml of penicillin and 100 μg/ml of streptomycin, 23 μM folic acid, 100 μM adenosine, 22 mM D-glucose, 25 mM MES. The pH of media is adjusted to 5.5 at 37° C. using HCl. 20 μL of media is first dispensed into 384 well plates and 100 nL of the compounds of invention in DMSO are added to the plate wells. At the same time control compounds and DMSO are added to plates to serve as the positive and negative controls, respectively. 40 μL of parasite culture (9600 parasites) are then added to the plate wells. The plates are then placed into incubators. After two days incubation, 20 μL of Cell TiterGlo® (Promega) is added to the plate wells. The luminescence signal of each well is measured using the Envision reader (Perkin Elmer).
In general terms: Cellular ATP, detected with luciferase, serves as a proxy for viable cell number.

Assay [2] has as its system Trypanosoma cruzi amastigotes cultured in 3T3 fibroblast cells. Kind of assay: Assay for growth inhibition of kinetoplastid parasite Trypanosoma cruzi (beta-galactosidase Tulahuen strain, CPRG readout). The settings on record: Trypanosoma cruzi, Fibroblast, T. cruzi amastigotes in 3T3 fibroblast cells; read-out: Buckner infectious T. cruzi EC50. The source says: Assay for Growth Inhibition of Kinetoplastid Parasite Trypanosoma cruzi
Compounds of the invention can be assayed for inhibitor activity against Trypanosoma cruzi amastigotes cultured in 3T3 fibroblast cells. The assay is done using the mammalian stage (amastigotes) of T. cruzi that replicates in the intracellular space of host cells. The host cells are initially infected with the culture-derived trypomastigotes that rapidly invade and then divide as amastigotes. The protocol uses the Tulahuen strain of T. cruzi that has been engineered to express the E. coli beta-galactosidase gene (Lac-Z) (Antimicr. Agents Chemoth. 40:2592, 1996). This allows for a colorimetric readout by using the substrate CPRG and an absorbance plate reader.
3T3 fibroblast cells are re-suspended in RPMI-1640 medium without phenol red medium supplemented with 10% FBS (heat inactivated), 100 μg/ml penicillin, and 100 μg/ml streptomycin. Forty μL of suspension (1,000 cells) is dispensed into 384-well plates and incubated overnight at 37° C. temperature and in atmosphere containing 5% CO2. The following day, 100 nL of compounds of the invention in DMSO are added to plate wells containing 3T3 cells. At the same time control compounds (benznidazole and nifurtimox) and DMSO are added to plates to serve as the positive and negative controls, respectively. After that, 10 μL of media containing 10,000 T. cruzi trypomastigotes are added to each plate well and plates are placed back into incubators. After 6 day incubation, 10 μL of reagent solution (0.6 mM CPRG, 0.6% NP-40 in PBS) is added to plates and incubated at room temperature for 2 hours. Absorbance is then measured on SpectraMax GEMINI fluorimeter to determine relative number of T. cruzi cells present in each plate well.

Assay [3] has as its system Trypanosoma brucei brucei (Lister 427) strain. Kind of assay: Assay for growth inhibition against Trypanosoma brucei brucei (Cell TiterGlo ATP luminescence). The conditions noted are these: Trypanosoma brucei, T. brucei brucei (Lister 427); read-out: T. Brucei (HAT) EC50. Here is the method: Assay for Growth Inhibition Against Trypanosoma brucei brucei
The proliferation is quantified by the addition of Cell TiterGlo® (Promega®) a luminescent cell viability assay that measures the number of viable cells in culture based on the quantification of cellular ATP amount, which is an indicator of metabolically active cells.
Trypanosoma brucei brucei (Lister 427) strain was grown in Hirumi 9 (HMI-9) media supplemented with 10% v/v fetal bovine serum (FBS) and 10% v/v serum plus. For measurement of cell proliferation inhibition, test compounds were three fold serially diluted in duplicates to 384-well white plates, resulting in 10 dilutions for each compound. A volume of 40 μL of T. b. brucei culture (10,000 parasites/mL) was added to each well, and the assay plates were incubated at 37° C. for 2 days in a CO2 incubator. Growth inhibition was monitored by measuring ATP levels, which, is used as a surrogate marker for growth. Relative luminescence units were measured using TECAN® M1000 after 30 min of adding 40 μl of Cell TiterGlo®. IC50 values were determined by analyzing the data using HELIOS software. IC50 is defined as the lowest concentration of the compound that inhibited 50% growth of the T. b. brucei wild type strain compared to untreated controls.

In the case of `O=C(Nc1ccc(F)c(-n2cc3cc(CC4CCC4)cnc3n2)c1)c1ccco1` [Compound 62, N-{3-[5-(cyclobutylmethyl)-2H-pyrazolo[3,4-b]pyridin-2-yl]-4-fluorophenyl}furan-2-carboxamide], the EC50 (in general, the concentration that produces a half-maximal response) in assay [1] was 39 nM; in assay [2], 5.1 nM; in assay [3], less than 23 nM.

Turning to `CC(C)c1cnc2nn(-c3cc(NC(=O)C4CC(F)(F)C4)ccc3F)cc2c1` [Compound 118, 3,3-difluoro-N-{4-fluoro-3-[5-(propan-2-yl)-2H-pyrazolo[3,4-b]pyridin-2-yl]phenyl}cyclobutane-1-carboxamide], the EC50 in assay [1] is 690 nM; in assay [2], 1100 nM; in assay [3], 1400 nM.

For the molecule `CC1(O)CN(c2cnc3nn(-c4cc(NC(=O)N5CC(F)C5)ccc4F)cc3c2)C1` [Compound 251, 3-fluoro-N-{4-fluoro-3-[5-(3-hydroxy-3-methylazetidin-1-yl)-2H-pyrazolo[3,4-b]pyridin-2-yl]phenyl}azetidine-1-carboxamide], the EC50 worked out at 24 nM in assay [1], 367 nM in assay [2] and 5 nM in assay [3].

As to `O=C(Nc1ccc(F)c(-n2cc3cc(-n4cccn4)cnc3n2)c1)N1CC(F)C1` [Compound 319, 3-fluoro-N-{4-fluoro-3-[5-(1H-pyrazol-1-yl)-2H-pyrazolo[3,4-b]pyridin-2-yl]phenyl}azetidine-1-carboxamide], the EC50 in assay [1] was 1 nM; in assay [2], 1 nM; in assay [3], 5 nM.

For `O=C(Nc1ccc(F)c(-n2cc3cc(N4CC(O)C4)cnc3n2)c1)N1CC(F)C1` [Compound 181, 3-fluoro-N-{4-fluoro-3-[5-(3-hydroxyazetidin-1-yl)-2H-pyrazolo[3,4-b]pyridin-2-yl]phenyl}azetidine-1-carboxamide], the EC50 in assay [1] was 25 nM; in assay [2], 820 nM; in assay [3], less than 23 nM.

For `CC(C)c1cnc2nn(-c3cc(NC(=O)N4CCC4)ccc3F)cc2c1` [Compound 100, N-{4-fluoro-3-[5-(propan-2-yl)-2H-pyrazolo[3,4-b]pyridin-2-yl]phenyl}azetidine-1-carboxamide], the EC50 in assay [1] is 9.2 nM; in assay [2], 4.2 nM; in assay [3], less than 23 nM.

As for `[2H]C([2H])([2H])N(C(=O)Nc1ccc(F)c(-n2cc3cc(C(C)C)cnc3n2)c1)C([2H])([2H])[2H]` [Compound 219, 1-{4-fluoro-3-[5-(propan-2-yl)-2H-pyrazolo[3,4-b]pyridin-2-yl]phenyl}-3,3-bis(^2H3)methylurea], the values for the EC50 in assay [1], in assay [2] and in assay [3] were 34 nM, 15 nM and 17 nM, respectively.

Consider `CC(C)c1cnc2nn(-c3cc(NC(=O)N4CC(F)C4)ccc3F)cc2c1` [Compound 156, 3-fluoro-N-{4-fluoro-3-[5-(propan-2-yl)-2H-pyrazolo[3,4-b]pyridin-2-yl]phenyl}azetidine-1-carboxamide], for which the EC50 in assay [1] is 9.3 nM; in assay [2], 5.1 nM; in assay [3], less than 23 nM.

In the case of `CN1CCN(c2cnc3nn(-c4cc(NC(=O)N5CC(F)C5)ccc4F)cc3c2)CC1` [Compound 179, 3-fluoro-N-{4-fluoro-3-[5-(4-methylpiperazin-1-yl)-2H-pyrazolo[3,4-b]pyridin-2-yl]phenyl}azetidine-1-carboxamide], the EC50 in assay [1] was 410 nM; in assay [2] it was 43 nM; in assay [3] it was less than 23 nM.

For the molecule `O=C(Nc1ccc(F)c(-n2cc3cc(-c4ncccc4Cl)cnc3n2)c1)N1CC(F)C1` [Compound 188, N-{3-[5-(3-chloropyridin-2-yl)-2H-pyrazolo[3,4-b]pyridin-2-yl]-4-fluorophenyl}-3-fluoroazetidine-1-carboxamide], the EC50 is 2.4 nM in assay [1] and less than 23 nM in assay [3].

For `O=C(Nc1ccc(F)c(-n2cc3cc(C4COCCO4)cnc3n2)c1)N1CCC1` (stereo not shown) [Compound 289, N-{3-[5-(1,4-dioxan-2-yl)-2H-pyrazolo[3,4-b]pyridin-2-yl]-4-fluorophenyl}azetidine-1-carboxamide], the concentration giving a half-maximal response (EC50) in assay [1] is 199 nM; in assay [3], 208 nM.

Take `O=C(CC1CC1)Nc1ccc(F)c(-n2cc3cc(-c4ccccn4)cnc3n2)c1` [Compound 13, 2-cyclopropyl-N-{4-fluoro-3-[5-(pyridin-2-yl)-2H-pyrazolo[3,4-b]pyridin-2-yl]phenyl}acetamide]: the EC50 was 71 nM in assay [1] and less than 23 nM in assay [3].

For the molecule `COCCNc1cnc2nn(-c3cc(NC(=O)N4CC(F)C4)ccc3F)cc2c1` [Compound 185, 3-fluoro-N-(4-fluoro-3-{5-[(2-methoxyethyl)amino]-2H-pyrazolo[3,4-b]pyridin-2-yl]phenyl)azetidine-1-carboxamide], the EC50 in assay [1] is 200 nM; in assay [3] it was less than 23 nM.

Turning to `CC(C)c1cnc2nn(-c3cc(NC(=O)C4CC(F)C4)ccc3F)cc2c1` (stereo not shown) [Compound 121, 3-fluoro-N-{4-fluoro-3-[5-(propan-2-yl)-2H-pyrazolo[3,4-b]pyridin-2-yl]phenyl}cyclobutane-1-carboxamide], the EC50 in assay [1] was 210 nM; in assay [3], 120 nM.

With `O=C(Nc1ccc(F)c(-n2cc3cc(N4CCn5cnnc5C4)cnc3n2)c1)N1CC(F)C1` [Compound 186, 3-fluoro-N-[4-fluoro-3-(5-{5H,6H,7H,8H-[1,2,4]triazolo[4,3-a]pyrazin-7-yl}-2H-pyrazolo[3,4-b]pyridin-2-yl)phenyl}azetidine-1-carboxamide], the EC50 was 460 nM in assay [1] and 240 nM in assay [3].

On to `O=C(Nc1ccc(F)c(-n2cc3cc(N4CC5CCC(C4)O5)cnc3n2)c1)N1CC(F)C1` [Compound 184, 3-fluoro-N-[4-fluoro-3-(5-{8-oxa-3-azabicyclo[3.2.1]octan-3-yl}-2H-pyrazolo[3,4-b]pyridin-2-yl)phenyl}azetidine-1-carboxamide], for which the EC50 is 7.3 nM in assay [1] and less than 23 nM in assay [3].

In the case of `O=C(Nc1ccc(F)c(-n2cc3cc(-c4ccccn4)cnc3n2)c1)C1CC1` [Compound 12, N-{4-fluoro-3-[5-(pyridin-2-yl)-2H-pyrazolo[3,4-b]pyridin-2-yl]phenyl}cyclopropanecarboxamide], the values for the EC50 in assay [1] and in assay [3] were 41 nM and less than 23 nM, respectively.

For `O=C(Nc1ccc(F)c(-n2cc3cc(C4CCCCO4)cnc3n2)c1)N1CCC1` (stereo not shown) [Compound 288, N-(4-fluoro-3-(5-(tetrahydro-2H-pyran-2-yl)-2H-pyrazolo[3,4-b]pyridin-2-yl)phenyl)azetidine-1-carboxamide], the EC50 in assay [1] amounted to 176 nM; in assay [3], 260 nM.

For the molecule `[2H]C([2H])([2H])c1nc(C)c(C(=O)Nc2ccc(F)c(-n3cc4cc(-c5ncccc5C)cnc4n3)c2)o1` [Compound 278, N-{4-fluoro-3-[5-(3-methylpyridin-2-yl)-2H-pyrazolo[3,4-b]pyridin-2-yl]phenyl}-2-(^2H3)methyl-4-methyl-1,3-oxazole-5-carboxamide], the EC50 in assay [1] came to 7 nM; in assay [3] it was 13 nM.

As for `O=C(Nc1ccc(F)c(-n2cc3cc(-c4cccnc4)cnc3n2)c1)N1CC(F)C1` [Compound 189, 3-fluoro-N-{4-fluoro-3-[5-(pyridin-3-yl)-2H-pyrazolo[3,4-b]pyridin-2-yl]phenyl}azetidine-1-carboxamide], the EC50 in assay [1] was 3 nM; in assay [3], less than 23 nM.
